Test results reported in patent US20220380342A1, “BIPHENYL DERIVATIVES FOR BLOCKING PD-1/PD-L1 INTERACTION, PREPARATION METHOD THEREFOR AND USE THEREOF” (Abbisko Therapeutics Co., Ltd., priority 2019, published 2022).

Legend:
[1] = target: T1, interaction between PD-1 and PD-L1 (Homo sapiens, UniProt Q9NZQ7); test: PD1-PDL1 HTRF binding activity test; settings: Cisbio PD-1/PD-L1 binding assay kit; percent inhibition vs DMSO
T1 construct: purchased Cisbio 64ICP01PEG or 64ICP01PEH
Description: The effect of compounds of the examples of the present invention on the interaction between PD-1 and PD-L1 was determined by the PD-1/PD-L1 binding assay kit from Cisbio (#64ICP01PEG or 64ICP01PEH). The detailed experimental process was as follows:
1) Pre-diluted compound solution, 4 μL of Tag1-PD-L1 and 4 μL of Tag2-PD1 were added to each well of a 384-well plate;
2) After the mixture was incubated at room temperature for 15 min, 5 μL of anti-Tag1-Eu3+ antibody and 5 μL of anti-Tag2-XL665 antibody were then added;
3) After incubated for 2 hrs at room temperature or overnight at 4° C., plates were read on Envision of Perkin Elmer; and readings at 665 nm and 620 nm were recorded, and the ratio of the two readings was taken as a reading for each well;
4) The reading of each well after compound treatment was compared with the reading of DMSO treated wells to obtain the percent inhibition of the compound; and
5) IC50 values of compounds of the examples of the present invention were determined by non-linear regression analysis of percent inhibition at different compound concentrations.

[2] = target: T2, interaction between PD-1 and PD-L1 expressed on cell surfaces (Jurkat/NF-κB-luc/PD1 cells cocultured with Raji-PD-L1 cells) (Homo sapiens, UniProt Q9NZQ7); test: Jurkat reporter gene cellular assay; format: cell-based; settings: OKT3 1 μg/mL stimulation, 6 hrs, activation fold vs DMSO
T2 construct: expressed in transfected cells; host or cells: Raji cells (PD-L1); Jurkat cells (PD-1, NF-κB-luc reporter)
T2 sequence (Q9NZQ7 19-290): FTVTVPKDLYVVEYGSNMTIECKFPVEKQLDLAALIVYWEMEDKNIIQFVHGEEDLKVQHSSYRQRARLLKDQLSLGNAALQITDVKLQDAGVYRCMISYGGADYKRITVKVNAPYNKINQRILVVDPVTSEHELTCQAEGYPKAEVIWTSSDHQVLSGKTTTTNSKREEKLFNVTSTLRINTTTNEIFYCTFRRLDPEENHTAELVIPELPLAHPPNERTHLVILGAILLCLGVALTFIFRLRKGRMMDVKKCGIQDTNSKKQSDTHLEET
Description: The effect of compounds of the examples of the present invention on the interaction between PD-1 and PD-L1 expressed on cell surfaces, and the related influence on T cell functions, were determined by a Jurkat reporter gene cellular assay.
Briefly, the reporter gene plasmid of NF-κB-luc and the plasmid of human PD-1 were transfected into Jurkat cells to establish a stably transfected cell line capable of stably expressing both PD-1 and NF-κB-Luc reporter genes; the expression level of PD-1 on the cell surface was confirmed by flow cytometry; and the expression of the reporter gene was confirmed via the response of the reporter gene stimulated by OKT-3 and Raji cells.
In addition, the plasmid of human PD-L1 was transfected into Raji cells to obtain a cell line capable of stably expressing PD-L1. Jurkat/NF-κB-luc/PD1 cells and Raji-PD-L1 cells were then cocultured and stimulated with OKT-3. On this basis, the compounds were added, and the enhancement of the signal pathway of T cell activation by the inhibitory effect of the compounds on the interaction between PD-1 and PD-L1 was evaluated by readings of reporter gene responses. The specific experimental process was as follows:
1) 30 μL of compound or antibody solution was added to each well of a white 96-well plate (Corning, 3610) at different diluted concentrations, and 10 μL of OKT3 (Biolegend, 317326) was then added (the final concentration of OKT3: 1 μg/mL);
2) 20 μL of Raji-PD-L1 cell suspension was added to each well with 5*10^4 cells for each well, and was incubated in an incubator for 20 min;
3) 20 μL of Jurkat/NF-Kb-luc/PD-1 cell suspension was added to each well with 5*10^4 cells for each well, and was well mixed, and 6 hrs later, Bright-glo (Promega, E2620) was applied and plates were read on Envision;
4) The reading of each well treated with the compound was compared with the reading of each well treated with DMSO to obtain the activation fold of the compound; and
5) EC50 values of compounds of the examples of the present invention were determined by non-linear regression analysis of activation folds at different compound concentrations.

T1 sequence (Q9NZQ7 19-238 limits assumed): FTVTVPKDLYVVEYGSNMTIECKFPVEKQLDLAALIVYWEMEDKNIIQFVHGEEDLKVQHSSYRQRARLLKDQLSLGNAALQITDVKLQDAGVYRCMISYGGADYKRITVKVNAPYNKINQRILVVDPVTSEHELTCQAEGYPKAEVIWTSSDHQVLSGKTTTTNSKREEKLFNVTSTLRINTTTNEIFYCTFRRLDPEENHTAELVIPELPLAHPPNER

Row | Compound | IC50 [1] | EC50 [2]
1 | Cc1c(NC(=O)c2cc(C3CC3)c(CN3CCCC3)cn2)cccc1-c1cccc(NC(=O)c2cc(C3CC3)c(CN3CCCC[C@H]3C(=O)O)cn2)c1C [Example 12] | 1.02 nM | 10.6 nM
2 | CCOC(=O)[C@@H](CO)NCc1cnc(C(=O)Nc2cccc(-c3cccc(NC(=O)c4cc(C5CC5)c(CNCCO)cn4)c3C)c2C)cc1C1CC1 [Example 35-1, ethyl ((4-cyclopropyl-6-((3′-(4-cyclopropyl-5-(((2-hydroxyethyl)amino)methyl)picolinamido)-2,2′-dimethyl-[1,1′-biphenyl]-3-yl)carbamoyl)pyridin-3-yl)methyl)-D-serinate] | 3.03 nM | 231 nM
3 | Cc1c(NC(=O)c2cc(C3CC3)c(CN[C@H](CO)C(=O)O)cn2)cccc1-c1cccc(NC(=O)c2cc(C3CC3)c(CN3CC(C)(O)C3)cn2)c1C [Example 36, ((4-cyclopropyl-6-((3′-(4-cyclopropyl-5-((3-hydroxy-3-methylazetidin-1-yl)methyl)picolinamido)-2,2′-dimethyl-[1,1′-biphenyl]-3-yl)carbamoyl)pyridin-3-yl)methyl)-D-serine] | 0.72 nM | 52 nM
4 | CCOC(=O)[C@@H](CO)NCc1cnc(C(=O)Nc2cccc(-c3cccc(NC(=O)c4cc(C5CC5)c(CN5CCCC[C@H]5C(=O)O)cn4)c3C)c2C)cc1C1CC1 [Example 29, (S)-1-((4-cyclopropyl-6-((3′-(4-cyclopropyl-5-((((R)-1-ethoxy-3-hydroxy-1-oxopropan-2-yl)amino)methyl)picolinamido)-2,2′-dimethyl-[1,1′-biphenyl]-3-yl)carbamoyl)pyridin-3-yl)methyl)piperidine-2-carboxylic acid] | 1.61 nM | 115 nM
5 | Cc1c(NC(=O)c2cc(C3CC3)c(CN[C@@H]3CCC[C@H]3O)cn2)cccc1-c1cccc(NC(=O)c2cc(C3CC3)c(CN3CCCC[C@H]3C(=O)O)cn2)c1C [Example 6, (S)-1-((4-cyclopropyl-6-((3′-(4-cyclopropyl-5-((((1R,2R)-2-hydroxycyclopentyl)amino)methyl)picolinamido)-2, 2′-dimethyl-[1,1′-biphenyl]-3-yl)carbamoyl)pyridin-3-yl)methyl)piperidine-2-carboxylic acid] | 1.69 nM | 49.3 nM
6 | Cc1c(NC(=O)c2cc(C3CC3)c(CN[C@@](C)(CO)C(=O)O)cn2)cccc1-c1cccc(NC(=O)c2cc(C3CC3)c(CN[C@@](C)(CO)C(=O)O)cn2)c1C [Example 67, (2S,2′S)-2,2′-((((((2,2′-dimethyl-[1,1′-biphenyl]-3,3′-diyl)bis(azanediyl))bis(carbonyl))bis(4-cyclopropylpyridine-6,3-diyl))bis(methylene))bis(azanediyl))bis(3-hydroxy-2-methylpropanoic acid)] | 0.61 nM | 19.7 nM
7 | Cc1c(NC(=O)c2cc(C3CC3)c(CNC3CC3)cn2)cccc1-c1cccc(NC(=O)c2cc(C3CC3)c(CN3CCCC[C@H]3C(=O)O)cn2)c1C [Example 10, (S)-1-((4-cyclopropyl-6-((3′-(4-cyclopropyl-5-((cyclopropylamino)methyl)picolinamido)-2,2′-dimethyl-[1,1′-biphenyl]-3-yl)carbamoyl)pyridin-3-yl)methyl) piperidine-2-carboxylic acid] | 3.38 nM | 120 nM
8 | Cc1c(NC(=O)c2cc(C3CC3)c(CN[C@H](C)CO)cn2)cccc1-c1cccc(NC(=O)c2cc(C3CC3)c(CN[C@H](CO)C(=O)O)cn2)c1C [Example 38, ((4-cyclopropyl-6-((3′-(4-cyclopropyl-5-((((R)-1-hydroxypropan-2-yl)amino)methyl)picolinamido)-2,2-dimethyl-[1,1′-biphenyl]-3-yl)carbamoyl)pyridin-3-yl)methyl)-D-serine] | 0.67 nM | 37.3 nM
9 | Cc1c(NC(=O)c2cc(C3CC3)c(CNC3CCOCC3)cn2)cccc1-c1cccc(NC(=O)c2cc(C3CC3)c(CN3CCCC[C@H]3C(=O)O)cn2)c1C [Example 24, (S)-1-((4-cyclopropyl-6-((3′-(4-cyclopropyl-5-(((tetrahydro-2H-pyran-4-yl)amino)methyl)picolinamido)-2,2′-dimethyl-[1,1′-biphenyl]-3-yl)carbamoyl)pyridin-3-yl)methyl)piperidine-2-carboxylic acid] | 0.91 nM | 52 nM

More lines, now with the values ahead:

Row | IC50 [1] | EC50 [2] | Compound
10 | 3.22 nM | 264 nM | CCOC(=O)[C@@H](CO)NCc1cnc(C(=O)Nc2cccc(-c3cccc(NC(=O)c4cc(C5CC5)c(CN[C@@H](C)CO)cn4)c3C)c2C)cc1C1CC1 [Example 39-1, Ethyl ((4-cyclopropyl-6-((3′-(4-cyclopropyl-5-((((S)-1-hydroxypropan-2-yl)amino)methyl)picolinamido)-2,2′-dimethyl-[1,1′-biphenyl]-3-yl)carbamoyl)pyridin-3-yl)methyl)-D-serinate]
11 | 4.77 nM | 219 nM | CCOC(=O)[C@@H](CO)NCc1cnc(C(=O)Nc2cccc(-c3cccc(NC(=O)c4cc(C5CC5)c(CN[C@H](C)CO)cn4)c3C)c2C)cc1C1CC1 [Example 38-1, Ethyl ((4-cyclopropyl-6-((3′-(4-cyclopropyl-5-((((R)-1-hydroxypropan-2-yl)amino)methyl)picolinamido)-2,2′-dimethyl-[1,1′-biphenyl]-3-yl)carbamoyl)pyridin-3-yl)methyl)-D-serinate]
12 | 0.68 nM | 15.1 nM | Cc1c(NC(=O)c2cc(C3CC3)c(CN3CC(C)(O)C3)cn2)cccc1-c1cccc(NC(=O)c2cc(C3CC3)c(CN3CCCC[C@H]3C(=O)O)cn2)c1C [Example 15, (S)-1-((4-cyclopropyl-6-((3′-(4-cyclopropyl-5-((3-hydroxy-3-methylazetidin-1-yl)methyl)picolinamido)-2,2′-dimethyl-[1,1′-biphenyl]-3-yl)carbamoyl)pyridin-3-yl)methyl)piperidine-2-carboxylic acid]
13 | 0.49 nM | 24.1 nM | CNCc1cnc(C(=O)Nc2cccc(-c3cccc(NC(=O)c4cc(C5CC5)c(CN5CCCC[C@H]5C(=O)O)cn4)c3C)c2C)cc1C1CC1 [Example 7, (S)-1-((4-cyclopropyl-6-((3′-(4-cyclopropyl-5-((methylamino)methyl)picolinamido)-2,2′-dimethyl-[1,1′-biphenyl]-3-yl)carbamoyl)pyridin-3-yl)methyl) piperidine-2-carboxylic acid]
14 | 3.18 nM | 99.5 nM | Cc1c(NC(=O)c2cc(C3CC3)c(CN[C@H](CO)C(=O)O)cn2)cccc1-c1cccc(NC(=O)c2cc(C3CC3)c(CN3CCC[C@@H]3CO)cn2)c1C [Example 55]
15 | 3.61 nM | 86.8 nM | Cc1c(NC(=O)c2cc(C3CC3)c(CN[C@H](CO)C(=O)O)cn2)cccc1-c1cccc(NC(=O)c2cc(C3CC3)c(CN3CC[C@@H](O)C3)cn2)c1C [Example 53, ((4-cyclopropyl-6-((3′-(4-cyclopropyl-5-(((R)-3-hydroxypyrrolidin-1-yl)methyl)picolinamido)-2,2′-dimethyl-[1, 1′-biphenyl]-3-yl)carbamoyl)pyridin-3-yl)methyl)-D-serine]
16 | 1.85 nM | 44.8 nM | Cc1c(NC(=O)c2cc(C3CC3)c(CN[C@@H](CO)C(=O)O)cn2)cccc1-c1cccc(NC(=O)c2cc(C3CC3)c(CN3CCCC[C@H]3C(=O)O)cn2)c1C [Example 32, (S)-1-((6-((3′-(5-((((S)-1-carboxy-2-hydroxyethyl)amino)methyl)-4-cyclopropylpicolinamido)-2,2′-dimethyl-[1,1′-biphenyl]-3-yl)carbamoyl)-4-cyclopropylpyridin-3-yl)methyl) piperidine-2-carboxylic acid]
